In US20220259656A1, “BLOOD BIOMARKER AND GENETIC MARKERS ASSOCIATED WITH RESPONSE TO CRTH2 RECEPTOR ANTAGONISTS” (Merck Sharp & Dohme Corp., priority 2019, published 2022):

How the values were obtained:
[1] = tested on: participants with persistent asthma uncontrolled on montelukast, positive for C allele of rs12748961 SNP; assay: Randomized, placebo-controlled, double-blind clinical study of Compound A added to montelukast; change from baseline in FEV1; type: in vivo, human; conditions: for Average Change From Baseline FEV1 (L), Mean: Cmpd A 150 mg + ML
Protocol: The inventors conducted a world-wide, randomized, placebo-controlled, double-blind, parallel group study of the CRTH2 receptor antagonist, {(7R)-4-fluoro-7-[5-(4-fluorobenzyl)-1H-[1,2,3]triazol-1-yl]-6,7,8,9-tetrahydropyrido[1,2-a]indol-10-yl}-acetic acid (hereinafter “Compound A”) in participants with persistent asthma who remained uncontrolled while being maintained on montelukast (ML). At Prescreening Visit 1, participants were tested for the presence of the rs 12748961 SNP to determine eligibility. The primary efficacy analysis compared the effect of Compound A to placebo, when each was added to montelukast, on the average change from baseline in FEV1 using a constrained longitudinal data analysis model.
Eligible participants were male and female participants between the ages of 18 and 65 with persistent asthma for at least 1 year and a documented SNP+test result. Participants also must have had acceptable lung function at Visit 2 and Visit 4 and evidence of reversibility of airway obstruction. Approximately 139 eligible participants whose asthma was uncontrolled during a run-in period of approximately 2 to 4 weeks entered a 6-week double-blind treatment period and were randomized in a 1:1 ratio to receive either Compound A 150 mg and montelukast 10 mg or Compound A 150 mg matching-image placebo and montelukast 10 mg. Randomization was stratified according to the number of C alleles (having either 1 or 2 copies of the allele) at the rs12748961 SNP. The total study duration for each participant was up to 17 weeks.
FIG. 2 is a graphical depiction of the study design. Briefly, salient activities occurring during the study are described below. During a pre-screening visit, a blood sample is collected to assess for the presence of the C-allele of rs12748961 SNP. At the start of the pre-study period, eligible subjects receiving Long-Acting Beta-Agonist (LABA) therapy were asked to discontinue the LABA. During run-in period (approximately 2 to 4 weeks), subjects receive single-blind Compound A 150 mg matching-image placebo and open-label montelukast 10 mg. Subjects taking asthma controller therapies prior to Visit 2 were asked to discontinue or taper off these pre-study medications before randomization while receiving open-label montelukast 10 mg. During the treatment period (approximately 6 weeks): Subjects received double-blind treatment of Compound A 150 mg plus montelukast 10 mg; or Compound A 150 mg matching-image placebo plus montelukast 10 mg.
In order to identify patient groups susceptible to treatment response, the inventors conducted an analysis on pre-specified patient subgroups in the study based on (a) demographic variables (including age, gender, race, weight, height, and body mass index) and (b) baseline characteristics (including duration of asthma, age diagnosed of asthma, asthma controller pre- trial, ICS use, blood eosinophil count, baseline ACQ-6, and smoking history), (c) prior and secondary diagnoses, (d) prior and concomitant therapies, and (e) the number of C alleles of the rs12748961 SNP on asthmatic study subjects who had undergone a clinical trial with a CRTH2 receptor antagonist and the leukotriene antagonist montelukast. The analysis sought to assess whether a mean treatment difference varies across patient subgroups defined by several pre-specified characteristics and who also tested positive for at least one copy of the C allele of the rs12748961 SNP.

allergic rhinitis = conditions: in vivo; cited from earlier work
[2] = tested on: patient population afflicted with eosinophilic severe asthma; conditions: patients with eosinophilic severe asthma, Phase IIa; cited from earlier work
[3] = Cmpd A 150 mg + montelukast 10 mg, full study population

For O=C(O)Cc1c2n(c3c(F)cccc13)C[C@H](n1nncc1Cc1ccc(F)cc1)CC2 [Compound A, {(7R)-4-fluoro-7-[5-(4-fluorobenzyl)-1H-[1,2,3]triazol-1-yl]-6,7,8,9-tetrahydropyrido[1,2-a]indol-10-yl}-acetic acid], the “Estimated Differences with placebo + ML, Difference in LS Means, FEV1 at Week 4 and Week 6” value ([1]; Cmpd A 150 mg + ML vs. placebo + ML, full study population) was 107 mL, the “Estimated Differences With Placebo + ML, LS Mean, FEV1” value ([1]; Cmpd A 150 mg + ML vs. placebo + ML, subgroup baseline eosinophil count <0.30 × 10^9/L) was 63 mL and the “Estimated Differences With Placebo + ML, LS Mean, FEV1” value ([1]; Cmpd A 150 mg + ML vs. placebo + ML, subgroup baseline eosinophil count >0.30 × 10^9/L) was 193 mL. The “Average Change From Baseline FEV1 (L), Mean” value ([1]; subgroup baseline eosinophil count <0.30 × 10^9/L) was 0.166 L, the “Average Change From Baseline FEV1 (L), Mean” value ([1]; subgroup baseline eosinophil count >0.30 × 10^9/L) was 0.139 L and the “Average Change from Baseline in FEV1 (L) at Week 4 and Week 6, Mean” value [1, 3] was 0.156 L. For the same compound, the “Average Change from Baseline in FEV1 (L) at Week 4 and Week 6, Median” value [1, 3] was 0.091 L, the “FEV1 (L) Average at Week 4 and Week 6, Mean” value ([1]; Cmpd A 150 mg + montelukast 10 mg, full study population, 6-week treatment) was 2.426 L and the “Average Change from Baseline in FEV1 (L) at Week 4 and Week 6, LS Mean” value ([1]; Cmpd A 150 mg + montelukast 10 mg, full study population, cLDA model) was 0.152 L.
In the case of O=C(O)CCn1c2c(c3ccccc31)C[C@H](NS(=O)(=O)c1ccc(F)cc1)CC2 [Ramatroban, 3-((3R)-3-{[(4-fluorophenyl)sulfonyl]amino}-1,2,3,4-tetrahydro-9H-carbazol-9-yl)propanoic acid], the “efficacy in allergic rhinitis” value (allergic rhinitis) is given as “some degree of efficacy”.
For Cc1c(CC(=O)O)c2cccnc2n1Cc1ccc(S(C)(=O)=O)cc1C(F)(F)F [fevipiprant, 2-(2-methyl-1-(4-(methylsulfonyl)-2-(trifluoromethyl)benzyl)-1H-pyrrolo[2,3-b]pyridin-3-yl)acetic acid], the sputum eosinophils [2] is listed as “reduction of sputum eosinophils”.
